Results from PubChem BioAssay AID1918956 (Molecular Pharmacology Branch, DTP, NCI, 2023).
pIC50: −log10 of the molar value.

System: OVCAR-5 complex spheroids, viability
Test: Anticancer human tumor OVCAR-5 cell line growth inhibition;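 also: spheroids exposed to agents for seven days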;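 as to viability, T/C: 100% = DMSO vehicle control wells viability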
Settings: for pIC50: curve of first compound; for viability, T/C: stronger effect = lower value
In short: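 Drug combinations with the LSD1 inhibitor iadademstat tested on tumor cells co-cultured as spheroids with endothelial cells and mesenchymal stem cells. Concentrations descended in half-log increments from clinical Cmax or 10 microM.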

[1] = second compound 0.1 µM, first compound 0.0316 µM
[2] = second compound 0.1 µM, first compound 0.1 µM
[3] = second compound 0.1 µM, first compound 0.316 µM
[4] = second compound 0.1 µM, first compound 1 µM
[5] = second compound 0.1 µM, first compound 3.16 µM
[6] = second compound 0.1 µM, first compound 10 µM
[7] = second compound 0.316 µM, first compound 0.0316 µM
[8] = second compound 0.316 µM, first compound 0.1 µM
[9] = second compound 0.316 µM, first compound 0.316 µM
[10] = second compound 0.316 µM, first compound 1 µM
[11] = second compound 0.316 µM, first compound 3.16 µM
[12] = second compound 0.316 µM, first compound 10 µM
[13] = second compound 1 µM, first compound 0.0316 µM
[14] = second compound 1 µM, first compound 0.1 µM
[15] = second compound 1 µM, first compound 0.316 µM
[16] = second compound 1 µM, first compound 1 µM
[17] = second compound 1 µM, first compound 3.16 µM
[18] = second compound 1 µM, first compound 10 µM
[19] = second compound 3.16 µM, first compound 0.0316 µM
[20] = second compound 3.16 µM, first compound 0.1 µM
[21] = second compound 3.16 µM, first compound 0.316 µM
[22] = second compound 3.16 µM, first compound 1 µM
[23] = second compound 3.16 µM, first compound 3.16 µM
[24] = second compound 3.16 µM, first compound 10 µM
[25] = second compound 10 µM, first compound 0.0316 µM
[26] = second compound 10 µM, first compound 0.1 µM
[27] = second compound 10 µM, first compound 0.316 µM
[28] = second compound 10 µM, first compound 1 µM
[29] = second compound 10 µM, first compound 3.16 µM
[30] = second compound 10 µM, first compound 10 µM
[31] = second compound 0.1 µM, first compound 0.00316 µM
[32] = second compound 0.1 µM, first compound 0.01 µM
[33] = second compound 0.316 µM, first compound 0.00316 µM
[34] = second compound 0.316 µM, first compound 0.01 µM
[35] = second compound 1 µM, first compound 0.00316 µM
[36] = second compound 1 µM, first compound 0.01 µM
[37] = second compound 3.16 µM, first compound 0.00316 µM
[38] = second compound 3.16 µM, first compound 0.01 µM
[39] = second compound 10 µM, first compound 0.00316 µM
[40] = second compound 10 µM, first compound 0.01 µM

Work on `CC(C)c1c(-c2ccccc2)nc2c(C#N)c[nH]n2c1=O` + NC1CC1c1ccc(-c2cccc(O)c2)cc1 yielded a pIC50 (second compound 0.1 µM) of less than 5.00, a pIC50 (second compound 0.316 µM) of less than 5.00 and a pIC50 (second compound 1 µM) of less than 5.00. The pIC50 (second compound 3.16 µM) was less than 5.00, the pIC50 (second compound 10 µM) was less than 5.00 and the viability, T/C [1] was 92.2%. For the same compound, the viability, T/C [2] was 98.4%, the viability, T/C [3] was 97.4% and the viability, T/C [4] was 98.4%. For the same compound, the viability, T/C [5] was 99.9%, the viability, T/C [6] was 107% and the viability, T/C [7] was 98%. The viability, T/C [8] was 96%, the viability, T/C [9] was 102% and the viability, T/C [10] was 102%. For the same compound, the viability, T/C [11] was 98%, the viability, T/C [12] was 108% and the viability, T/C [13] was 87%. For the same compound, the viability, T/C [14] was 90%, the viability, T/C [15] was 97.1% and the viability, T/C [16] was 105%. For the same compound, the viability, T/C [17] was 96.1%, the viability, T/C [18] was 104% and the viability, T/C [19] was 88.3%. For the same compound, the viability, T/C [20] was 95.4%, the viability, T/C [21] was 77.8% and the viability, T/C [22] was 95.6%. It also gave a viability, T/C [23] of 88.8%, a viability, T/C [24] of 98.9% and a viability, T/C [25] of 82.2%. It also gave a viability, T/C [26] of 91%, a viability, T/C [27] of 80.5% and a viability, T/C [28] of 87.5%. For the same compound, the viability, T/C [29] was 87.7% and the viability, T/C [30] was 73.5%.
`CC1COCCN1c1cc(-c2ccnn2C)c2ccnc(-c3ccn[nH]3)c2n1` (stereo not given) + NC1CC1c1ccc(-c2cccc(O)c2)cc1 was tested, and the pIC50 (second compound 0.1 µM) was 7.50, the pIC50 (second compound 0.316 µM) was 7.48 and the pIC50 (second compound 1 µM) was 7.61. For the same compound, the pIC50 (second compound 3.16 µM) was 7.60, the pIC50 (second compound 10 µM) was 7.70 and the viability, T/C [31] was 98.8%. It also gave a viability, T/C [32] of 79.8%, a viability, T/C [1] of 49% and a viability, T/C [2] of 35.6%. For the same compound, the viability, T/C [3] was 31.7%, the viability, T/C [4] was 27.9% and the viability, T/C [33] was 105%. For the same compound, the viability, T/C [34] was 79.1%, the viability, T/C [7] was 49.6% and the viability, T/C [8] was 36.5%. For the same compound, the viability, T/C [9] was 30.4%, the viability, T/C [10] was 27.9% and the viability, T/C [35] was 91.3%. For the same compound, the viability, T/C [36] was 72.8%, the viability, T/C [13] was 42.3% and the viability, T/C [14] was 33.4%. For the same compound, the viability, T/C [15] was 27.3%, the viability, T/C [16] was 25.8% and the viability, T/C [37] was 88.9%. For the same compound, the viability, T/C [38] was 75.1%, the viability, T/C [19] was 43% and the viability, T/C [20] was 32.8%. The viability, T/C [21] was 31.1%, the viability, T/C [22] was 25.3% and the viability, T/C [39] was 95.9%. The viability, T/C [40] was 62.1%, the viability, T/C [25] was 42.5% and the viability, T/C [26] was 30.4%. It also gave a viability, T/C [27] of 31.3% and a viability, T/C [28] of 26%.
With `COc1ccc([C@@H](O)c2cc(-c3ncnc4cc(N5CCOCC5)ccc34)c(F)cc2Cl)nn1` + NC1CC1c1ccc(-c2cccc(O)c2)cc1 the pIC50 (second compound 0.1 µM) was 6.20, the pIC50 (second compound 0.316 µM) was 6.13 and the pIC50 (second compound 1 µM) was 6.38. It also gave a pIC50 (second compound 3.16 µM) of 6.40, a pIC50 (second compound 10 µM) of 6.52 and a viability, T/C [1] of 80.8%. For the same compound, the viability, T/C [2] was 72.6%, the viability, T/C [3] was 55.3% and the viability, T/C [4] was 46.4%. For the same compound, the viability, T/C [5] was 29.5%, the viability, T/C [6] was 16.4% and the viability, T/C [7] was 92.3%. For the same compound, the viability, T/C [8] was 79.1%, the viability, T/C [9] was 61.4% and the viability, T/C [10] was 45.3%. For the same compound, the viability, T/C [11] was 31.8%, the viability, T/C [12] was 18.1% and the viability, T/C [13] was 86.3%. For the same compound, the viability, T/C [14] was 73.4%, the viability, T/C [15] was 57.1% and the viability, T/C [16] was 31.7%. It also gave a viability, T/C [17] of 25.8%, a viability, T/C [18] of 16.7% and a viability, T/C [19] of 84%. It also gave a viability, T/C [20] of 68%, a viability, T/C [21] of 49.9% and a viability, T/C [22] of 38.8%. The viability, T/C [23] was 31.6%, the viability, T/C [24] was 15.9% and the viability, T/C [25] was 79.1%. It also gave a viability, T/C [26] of 65.3%, a viability, T/C [27] of 46.7% and a viability, T/C [28] of 36.6%. It also gave a viability, T/C [29] of 29.6% and a viability, T/C [30] of 16.6%.
In the case of `COc1cc(C2c3cc4c(cc3C(OC3OC5COC(C)OC5C(O)C3O)C3COC(=O)C23)OCO4)cc(OC)c1O` (stereo not given) + NC1CCC(NC2CC2c2ccccc2)CC1, the pIC50 (second compound 0.1 µM) was 6.08, the pIC50 (second compound 0.316 µM) was 6.12 and the pIC50 (second compound 1 µM) was 6.05. For the same compound, the pIC50 (second compound 3.16 µM) was 6.13, the pIC50 (second compound 10 µM) was 6.15 and the viability, T/C (second compound 0.1 µM, first compound 0.00949 µM) was 113%. The viability, T/C (second compound 0.1 µM, first compound 0.03 µM) was 105%, the viability, T/C (second compound 0.1 µM, first compound 0.0949 µM) was 100% and the viability, T/C (second compound 0.1 µM, first compound 0.3 µM) was 73.5%. The viability, T/C (second compound 0.1 µM, first compound 0.949 µM) was 45.6%, the viability, T/C (second compound 0.1 µM, first compound 3 µM) was 41.4% and the viability, T/C (second compound 0.316 µM, first compound 0.00949 µM) was 106%. For the same compound, the viability, T/C (second compound 0.316 µM, first compound 0.03 µM) was 106%, the viability, T/C (second compound 0.316 µM, first compound 0.0949 µM) was 100% and the viability, T/C (second compound 0.316 µM, first compound 0.3 µM) was 71%. It also gave a viability, T/C (second compound 0.316 µM, first compound 0.949 µM) of 43.6%, a viability, T/C (second compound 0.316 µM, first compound 3 µM) of 43.9% and a viability, T/C (second compound 1 µM, first compound 0.00949 µM) of 98.7%. The viability, T/C (second compound 1 µM, first compound 0.03 µM) was 106%, the viability, T/C (second compound 1 µM, first compound 0.0949 µM) was 103% and the viability, T/C (second compound 1 µM, first compound 0.3 µM) was 76.7%. It also gave a viability, T/C (second compound 1 µM, first compound 0.949 µM) of 50%, a viability, T/C (second compound 1 µM, first compound 3 µM) of 44.2% and a viability, T/C (second compound 3.16 µM, first compound 0.00949 µM) of 99.9%. The viability, T/C (second compound 3.16 µM, first compound 0.03 µM) was 105%, the viability, T/C (second compound 3.16 µM, first compound 0.0949 µM) was 103% and the viability, T/C (second compound 3.16 µM, first compound 0.3 µM) was 70.9%. For the same compound, the viability, T/C (second compound 3.16 µM, first compound 0.949 µM) was 42.8%, the viability, T/C (second compound 3.16 µM, first compound 3 µM) was 45.4% and the viability, T/C (second compound 10 µM, first compound 0.00949 µM) was 89.4%. The viability, T/C (second compound 10 µM, first compound 0.03 µM) was 93%, the viability, T/C (second compound 10 µM, first compound 0.0949 µM) was 82.9% and the viability, T/C (second compound 10 µM, first compound 0.3 µM) was 67.7%. The viability, T/C (second compound 10 µM, first compound 0.949 µM) was 42.5% and the viability, T/C (second compound 10 µM, first compound 3 µM) was 40.9%.
`Nc1ncn(C2CC(O)C(CO)O2)c(=O)n1` (stereo not given) + NC1CCC(NC2CC2c2ccccc2)CC1 was tested, and the pIC50 (second compound 0.1 µM) was less than 6.00, the pIC50 (second compound 0.316 µM) was less than 6.00 and the pIC50 (second compound 1 µM) was less than 6.00. The pIC50 (second compound 3.16 µM) was less than 6.00, the pIC50 (second compound 10 µM) was less than 6.00 and the viability, T/C [31] was 103%. The viability, T/C [32] was 104%, the viability, T/C [1] was 94.4% and the viability, T/C [2] was 89.5%. The viability, T/C [3] was 75.5%, the viability, T/C [4] was 79% and the viability, T/C [33] was 97.7%. The viability, T/C [34] was 104%, the viability, T/C [7] was 81.4% and the viability, T/C [8] was 79.6%. It also gave a viability, T/C [9] of 78.4%, a viability, T/C [10] of 78.4% and a viability, T/C [35] of 91.8%. The viability, T/C [36] was 82.3%, the viability, T/C [13] was 79.6% and the viability, T/C [14] was 81.3%. The viability, T/C [15] was 76%, the viability, T/C [16] was 73.7% and the viability, T/C [37] was 91.6%. For the same compound, the viability, T/C [38] was 93.3%, the viability, T/C [19] was 78.2% and the viability, T/C [20] was 76.8%. For the same compound, the viability, T/C [21] was 70.5%, the viability, T/C [22] was 66.6% and the viability, T/C [39] was 83.7%. For the same compound, the viability, T/C [40] was 83.1%, the viability, T/C [25] was 79.1% and the viability, T/C [26] was 67.1%. It also gave a viability, T/C [27] of 61.9% and a viability, T/C [28] of 66%.
